The source of these data is ChEMBL document CHEMBL3091431, “Aminopyridyl/Pyrazinyl Spiro[indoline-3,4'-piperidine]-2-ones As Highly Selective and Efficacious c-Met/ALK Inhibitors” (ACS Med Chem Lett, 2013).

In data set [1] the target is Hepatocyte growth factor receptor (Homo sapiens, UniProt P08581). Briefly: Inhibition of c-Met phosphorylation in human […] cells after 1 hr by western blotting. Type of data set: cell-based.
The nature of data set [2]: Cmax in BALB/c mouse at 5 mg/kg, iv. Type of data set: ADME, organism-based. The arrangement: dose 5 mg/kg, route intravenous. To be noted: in vivo.
Data set [3] in a line: animal or person. To be noted: Homo sapiens, GTL 16, po, 336 h, read-out: TGI.
Description: Antitumor activity against human GTL16 cells xenografted in nu/nu mouse assessed as tumor growth inhibition at 40 mg/kg, po qd for 14 days
Data set [4] deals with Mus musculus. Briefly: Toxicity in human GTL16 cells xenografted nu/nu mouse model assessed as change in body weight at 20 mg/kg, po qd for 14 days. Type of data set: organism-based. Also on record: dose 20 mg/kg, route oral. To be noted: in vivo, 336 h.
Data set [5] can be described thus: cells. To be noted: Homo sapiens, GTL 16, 48 h.
Description: Antiproliferative activity against human GTL16 cells after 48 hrs by MTT assay
Data set [6] can be described thus: Oral bioavailability in BALB/c mouse at 20 mg/kg. Type of data set: ADME, organism-based. To be noted: in vivo.
Data set [7] has as its target T1, ALK tyrosine kinase receptor (Homo sapiens, UniProt Q9UM73). Briefly: Inhibition of human ALK (unknown origin) using poly[Glu:Tyr] as substrate by nanoliter kinase assay.
Target sequence in this assay (Q9UM73 whole entry): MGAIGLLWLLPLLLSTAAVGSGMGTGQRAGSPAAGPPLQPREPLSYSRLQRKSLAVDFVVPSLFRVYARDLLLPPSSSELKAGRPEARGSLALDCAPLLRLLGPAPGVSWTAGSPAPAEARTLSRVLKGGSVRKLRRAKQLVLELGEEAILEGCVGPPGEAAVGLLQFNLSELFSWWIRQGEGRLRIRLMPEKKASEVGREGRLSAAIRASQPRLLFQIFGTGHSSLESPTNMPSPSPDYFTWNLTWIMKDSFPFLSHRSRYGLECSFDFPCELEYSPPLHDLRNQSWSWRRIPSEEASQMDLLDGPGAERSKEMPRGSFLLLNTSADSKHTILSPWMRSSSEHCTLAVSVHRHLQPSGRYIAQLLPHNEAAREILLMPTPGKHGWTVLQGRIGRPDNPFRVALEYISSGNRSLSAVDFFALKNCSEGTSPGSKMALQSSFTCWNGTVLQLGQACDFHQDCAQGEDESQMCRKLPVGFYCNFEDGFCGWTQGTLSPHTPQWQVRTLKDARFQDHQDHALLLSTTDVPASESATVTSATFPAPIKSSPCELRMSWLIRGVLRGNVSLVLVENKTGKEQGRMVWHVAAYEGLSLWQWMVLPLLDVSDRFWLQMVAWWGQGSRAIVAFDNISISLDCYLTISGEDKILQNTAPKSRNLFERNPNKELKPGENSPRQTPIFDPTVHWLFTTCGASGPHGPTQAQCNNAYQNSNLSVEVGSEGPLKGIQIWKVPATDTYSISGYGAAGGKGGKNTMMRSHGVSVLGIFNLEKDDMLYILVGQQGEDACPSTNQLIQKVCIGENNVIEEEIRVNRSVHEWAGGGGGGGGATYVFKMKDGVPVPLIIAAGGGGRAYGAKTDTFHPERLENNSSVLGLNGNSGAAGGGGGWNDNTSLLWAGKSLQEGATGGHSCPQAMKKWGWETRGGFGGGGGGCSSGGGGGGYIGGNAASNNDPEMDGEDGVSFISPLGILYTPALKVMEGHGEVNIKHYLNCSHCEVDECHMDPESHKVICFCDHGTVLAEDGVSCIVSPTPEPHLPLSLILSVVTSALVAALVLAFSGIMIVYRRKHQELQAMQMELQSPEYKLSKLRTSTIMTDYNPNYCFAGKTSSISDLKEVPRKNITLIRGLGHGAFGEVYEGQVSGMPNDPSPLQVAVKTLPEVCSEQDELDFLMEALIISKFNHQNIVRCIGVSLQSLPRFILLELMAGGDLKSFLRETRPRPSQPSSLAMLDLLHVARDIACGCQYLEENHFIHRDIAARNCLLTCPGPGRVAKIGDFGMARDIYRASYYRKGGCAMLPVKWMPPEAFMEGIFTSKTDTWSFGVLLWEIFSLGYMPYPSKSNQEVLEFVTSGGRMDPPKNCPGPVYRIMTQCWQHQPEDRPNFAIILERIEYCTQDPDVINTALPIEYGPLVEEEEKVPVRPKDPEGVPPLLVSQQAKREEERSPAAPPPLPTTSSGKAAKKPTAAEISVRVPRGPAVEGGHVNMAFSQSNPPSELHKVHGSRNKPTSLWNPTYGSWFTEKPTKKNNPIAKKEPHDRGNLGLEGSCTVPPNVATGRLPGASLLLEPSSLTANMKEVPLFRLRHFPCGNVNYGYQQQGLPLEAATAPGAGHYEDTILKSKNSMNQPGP
The subject of a further data set is NCI-H1993. Briefly: cells. To be noted: Homo sapiens, NCI-H1993, 48 h.
A short description of data set [8]: cells. To be noted: Homo sapiens, NCI-H441, 48 h.
Description: Antiproliferative activity against human H441 cells after 48 hrs by MTT assay
Data set [9] relates to Mus musculus. The data set can be described thus: Bioavailability in BALB/c mouse at 5 mg/kg, iv. Type of data set: ADME, organism-based. To be noted: in vivo.
Data set [10] is described as follows: Cmax in BALB/c mouse at 20 mg/kg, po. Type of data set: ADME, organism-based. Also on record: dose 20 mg/kg, route oral. To be noted: in vivo.
The nature of data set [11]: animal or person. To be noted: Homo sapiens, GTL 16, po, 336 h, read-out: TGI. This is another data set of the same source.
Description: Antitumor activity against human GTL16 cells xenografted in nu/nu mouse assessed as tumor growth inhibition at 20 mg/kg, po qd for 14 days
Data set [12] is described as follows: AUC (0 to infinity) in BALB/c mouse at 20 mg/kg, po. Type of data set: ADME, organism-based. Also on record: time infinity, dose 20 mg/kg, route oral. To be noted: plasma.
A short description of data set [13]: AUC (0 to infinity) in BALB/c mouse at 5 mg/kg, iv. The arrangement: time infinity, dose 5 mg/kg, route intravenous. To be noted: plasma. Type of data set: ADME, organism-based.
Data set [14] has as its target T1, ALK tyrosine kinase receptor. Type of data set: cell-based.
Target sequence in this assay (Q9UM73 19-1620 limits assumed): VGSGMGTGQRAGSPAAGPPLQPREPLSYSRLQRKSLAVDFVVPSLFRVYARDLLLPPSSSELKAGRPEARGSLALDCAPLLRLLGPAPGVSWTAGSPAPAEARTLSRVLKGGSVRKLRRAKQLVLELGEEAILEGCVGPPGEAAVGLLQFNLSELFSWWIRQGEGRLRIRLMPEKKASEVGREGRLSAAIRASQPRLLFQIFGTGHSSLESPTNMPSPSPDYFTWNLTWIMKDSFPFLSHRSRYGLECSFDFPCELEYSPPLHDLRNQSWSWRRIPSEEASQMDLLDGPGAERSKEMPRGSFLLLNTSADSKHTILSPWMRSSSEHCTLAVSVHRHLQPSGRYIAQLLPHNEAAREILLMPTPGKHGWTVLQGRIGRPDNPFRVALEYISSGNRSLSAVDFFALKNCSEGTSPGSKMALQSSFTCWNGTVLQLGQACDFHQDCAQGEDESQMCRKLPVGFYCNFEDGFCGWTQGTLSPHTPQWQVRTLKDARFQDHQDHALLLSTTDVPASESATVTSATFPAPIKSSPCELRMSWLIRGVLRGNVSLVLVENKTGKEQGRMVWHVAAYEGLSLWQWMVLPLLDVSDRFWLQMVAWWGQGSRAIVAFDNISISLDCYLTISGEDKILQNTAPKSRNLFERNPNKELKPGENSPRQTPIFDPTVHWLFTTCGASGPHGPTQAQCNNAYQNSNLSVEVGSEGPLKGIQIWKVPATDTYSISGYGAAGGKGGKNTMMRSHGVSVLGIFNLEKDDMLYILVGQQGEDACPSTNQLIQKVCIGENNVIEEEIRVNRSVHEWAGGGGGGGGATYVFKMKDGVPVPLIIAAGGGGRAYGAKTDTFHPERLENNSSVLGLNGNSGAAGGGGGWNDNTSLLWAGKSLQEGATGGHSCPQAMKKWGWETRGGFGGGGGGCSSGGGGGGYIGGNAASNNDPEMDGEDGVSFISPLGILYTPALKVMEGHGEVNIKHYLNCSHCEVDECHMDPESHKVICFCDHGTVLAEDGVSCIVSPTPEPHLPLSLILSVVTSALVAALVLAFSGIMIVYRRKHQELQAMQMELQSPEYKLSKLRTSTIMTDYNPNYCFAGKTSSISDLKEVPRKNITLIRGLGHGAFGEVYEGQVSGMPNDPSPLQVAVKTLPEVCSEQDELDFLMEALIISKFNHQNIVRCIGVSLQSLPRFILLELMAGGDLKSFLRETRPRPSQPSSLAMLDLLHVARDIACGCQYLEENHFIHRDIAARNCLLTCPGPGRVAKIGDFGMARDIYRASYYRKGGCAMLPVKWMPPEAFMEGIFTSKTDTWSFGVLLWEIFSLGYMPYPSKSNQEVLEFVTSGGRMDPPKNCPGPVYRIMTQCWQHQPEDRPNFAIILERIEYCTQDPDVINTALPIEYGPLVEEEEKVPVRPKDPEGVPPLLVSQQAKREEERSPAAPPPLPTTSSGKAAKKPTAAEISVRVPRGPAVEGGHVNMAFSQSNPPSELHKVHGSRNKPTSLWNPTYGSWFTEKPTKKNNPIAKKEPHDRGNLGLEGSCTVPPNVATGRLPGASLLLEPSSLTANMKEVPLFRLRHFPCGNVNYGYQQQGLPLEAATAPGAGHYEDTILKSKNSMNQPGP
Description: Inhibition of NPM-fused ALK phosphorylation (unknown origin) expressed in human karpas 299 cells after 90 mins by Sandwich-ELISA
Data set [15] in a line: cells. To be noted: Homo sapiens, U-87 MG, 48 h.
Description: Antiproliferative activity against human U87MG cells after 48 hrs by MTT assay

SMILES strings stand for the structures. pIC50: −log10 of the molar value. Some results are limits rather than exact numbers.

Sequence of Hepatocyte growth factor receptor (P08581 whole entry): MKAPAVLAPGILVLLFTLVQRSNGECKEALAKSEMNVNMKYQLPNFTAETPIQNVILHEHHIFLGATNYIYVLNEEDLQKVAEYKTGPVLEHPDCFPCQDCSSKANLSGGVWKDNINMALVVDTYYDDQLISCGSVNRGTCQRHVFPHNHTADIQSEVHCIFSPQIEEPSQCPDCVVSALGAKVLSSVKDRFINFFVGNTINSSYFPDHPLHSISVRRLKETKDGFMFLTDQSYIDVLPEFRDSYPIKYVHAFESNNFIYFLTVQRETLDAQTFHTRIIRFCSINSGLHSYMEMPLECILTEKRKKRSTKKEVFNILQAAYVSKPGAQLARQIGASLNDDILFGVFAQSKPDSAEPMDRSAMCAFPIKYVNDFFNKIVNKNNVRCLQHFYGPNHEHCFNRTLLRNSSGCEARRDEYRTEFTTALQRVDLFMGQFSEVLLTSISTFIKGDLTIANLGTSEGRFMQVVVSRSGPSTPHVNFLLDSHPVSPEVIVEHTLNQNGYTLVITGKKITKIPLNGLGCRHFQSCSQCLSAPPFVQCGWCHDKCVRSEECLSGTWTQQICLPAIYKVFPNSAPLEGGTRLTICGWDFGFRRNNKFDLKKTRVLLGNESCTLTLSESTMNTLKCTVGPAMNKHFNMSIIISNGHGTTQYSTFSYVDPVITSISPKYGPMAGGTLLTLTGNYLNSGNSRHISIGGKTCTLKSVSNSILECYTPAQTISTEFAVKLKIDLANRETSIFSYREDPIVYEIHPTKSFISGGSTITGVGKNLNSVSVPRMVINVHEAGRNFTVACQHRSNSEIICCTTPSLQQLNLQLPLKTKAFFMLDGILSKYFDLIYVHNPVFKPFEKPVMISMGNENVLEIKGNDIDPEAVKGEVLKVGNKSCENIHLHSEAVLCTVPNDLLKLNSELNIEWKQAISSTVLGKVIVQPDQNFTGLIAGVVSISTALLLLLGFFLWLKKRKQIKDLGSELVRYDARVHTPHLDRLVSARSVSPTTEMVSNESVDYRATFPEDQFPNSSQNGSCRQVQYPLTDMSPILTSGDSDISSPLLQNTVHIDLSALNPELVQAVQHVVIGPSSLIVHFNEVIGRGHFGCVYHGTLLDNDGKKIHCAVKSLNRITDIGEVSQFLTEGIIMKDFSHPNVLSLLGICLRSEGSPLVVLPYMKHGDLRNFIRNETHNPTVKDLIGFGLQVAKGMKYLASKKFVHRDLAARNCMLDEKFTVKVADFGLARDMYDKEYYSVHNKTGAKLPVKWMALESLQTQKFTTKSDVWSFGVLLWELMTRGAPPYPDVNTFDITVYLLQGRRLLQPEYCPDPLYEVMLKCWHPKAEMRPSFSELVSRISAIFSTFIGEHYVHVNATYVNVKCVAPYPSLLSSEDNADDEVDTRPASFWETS
Description for NCI-H1993: Antiproliferative activity against human NCI-H1993 cells after 48 hrs by MTT assay

`CN1CCC2(CC1)C(=O)Nc1ccc(-c3cnc(N)c(OCc4c(Cl)ccc(F)c4Cl)c3)cc12`: in data set [1], the pIC50 was under 5.00.

As to `C[C@@H](Oc1cc(-c2ccc3c(c2)NC(=O)C32CCN(C)CC2)cnc1N)c1c(Cl)ccc(F)c1Cl`, the Cmax was 1360 nM in data set [2] and 1450 nM in data set [10]. In the data set “animal or person [3]”, the inhibition in vivo at 40 mg/kg is 87%. In addition, the Activity entry with Mus musculus [4] was “Non-toxic”. Besides, the pIC50 was 7.70 in “cells [5]”; over 9.30 in data set [7]; 5.80 in the data set with NCI-H1993; 5.55 in “cells [8]”; 7.41 in data set [14]; under 5.00 in “cells [15]”. Also, in data set [6], the bioavailability is 48%. This compound came in with a F in the data set on Mus musculus [9] of 100%. The inhibition in vivo at 20 mg/kg in the data set “animal or person [11]” turned out to be 52%. Besides, the AUC(0-inf) came out at 2350 ng·h/mL in data set [12] and 1230 ng·h/mL in [13].
